The structures appear in SMILES notation.

The EC50 is the concentration giving half of the maximal effect.

Series [1] concerns C. parvum sporozoites. Briefly: C. parvum invasion inhibition assay. As to conditions: 100 nM, 3 h infection. In kind it is cell-based, Cryptosporidium parvum. As to the method:
C. parvum excystation and invasion assays: Oocyst excystation rates in the presence of compounds were determined as previously described. The C. parvum invasion inhibition assays were conducted in two formats. In the first format, described previously, HCT-8 cells were seeded on glass slides (CELLTREAT Scientific Product, Pepperell, MA, USA) and allowed to grow to confluence. Oidiolactone A was added to the cells for one hour. TrtE and DMSO were run in parallel as positive and negative controls, respectively. The cell monolayers were then infected with 1.2 × 10^6 wild-type C. parvum oocysts. After 3 h of incubation at 37 °C, the slides were washed five times with 111 mM D-galactose, fixed with 4% paraformaldehyde, and permeabilized with 0.25% Triton-X. C. parvum sporozoites were detected with rabbit anti-gp40 [39] and Alexa Fluor 594 goat anti-rabbit antibodies. The HCT-8 cell nuclei were stained with 0.09 mM Hoechst. Slides were coded to enable unbiased counting, and sporozoites from at least 10 randomly selected fields were counted in each sample at 100× magnification (Zeiss® Axioscope 5). The percentage of invaded parasites was determined using the following equation: % Invaded parasites = [parasitescompound/parasitesDMSO] × 100. This experiment was run in duplicate with two biological replicates. […]

In series [2] the test system is C. parvum. Briefly: C. parvum growth inhibition assay (Cp-NLuc-infected HCT-8 cells). The series is classed as cell-based, Cryptosporidium parvum. As to conditions: for EC50: Cryptosporidium parvum, HCT-8, intracellular nanoluciferase-expressing C. parvum in vitro, Figure 1 table, read-out: EC50 (μM), C. parvum; for parasite inhibition in pilot screen: CpNLuc-infected HCT-8 cells, initial dose 5 µg/mL. As for the experimental part: C. parvum growth inhibition assays: The in vitro growth inhibition assay of C. parvum has been previously described. Briefly, clear-bottom, white-sided 96 well plates were seeded with HCT-8 cells. Once the cells reached between 50% and 75% confluency, they were infected with Cp-NLuc oocysts (10,000/well) in complete media containing 0.6% taurocholate. At 24 h post-infection (hpi), the infected cells were treated with compounds at various concentrations. DMSO was used as a vehicle control in parallel. Parasite growth was determined at 72 hpi by measuring relative luminescence units (RLUs) using Promega Nano-Glo substrate (Promega, Madison, WI, USA) and a SpectraMax® L Microplate Reader (Molecular Devices, San Jose, CA, USA). The percent inhibition of parasite growth was calculated as [(RLUDMSO − RLUcompound)/RLUDMSO] × 100.

The subject of series [3] is HCT-8 cells. Briefly: HCT-8 cytotoxicity assay. The series is classed as cell-based. As for the experimental part: (§1) HCT-8 and HFF cytotoxicity assays: Cytotoxicity of the compounds was determined against both confluent (the conditions of the infection assays) and growing HCT-8 and HFF host cells, as previously described. Cells were seeded into white-sided, clear-bottom 96-well plates and grown to either 40% or 100% confluency. Compounds were added to cells at various concentrations up to 100 µM in a final DMSO concentration of 0.5%. DMSO was run in parallel as a vehicle control. After 48 h, the viability of the cells was determined by either quantification of cellular ATP (Cell-Titer Glo cell viability assay; Promega, Madison WI, USA) or by MTT assay. Viability was determined 24 h after compound addition to HFF cells or 48 h after compound addition to HCT-8 cells or HepG2 cells. The percent cell growth was then calculated with the following formula: % Cell Growth = [RLUcompound/RLUDMSO] × 100. Samples were run in triplicate with two to three biological replicates.

Series [4] has as its system HFF cells. As to the kind of experiment: HFF cytotoxicity assay. Conditions: confluent. The series is classed as cell-based. As to the method:
as §1

Series [5] concerns HepG2 human hepatocytes. As to the kind of experiment: HepG2 cytotoxicity assay (MTS). In kind it is cell-based. As to conditions: 48 h, mean +/- SD. As for the experimental part: HepG2 cytotoxicity assay: Mammalian cell cytotoxicity was assessed in HepG2 human hepatocytes using an MTS 3-(4,5-dimethylthiazol-2-yl)-5-(3-carboxymethoxyphenyl)-2-(4-sulfophenyl)-2H-tetrazolium)-based cytotoxicity assay. For cytotoxicity testing, ∼2250 cells were seeded into each well of a 384-well microtiter plate and incubated for 24 h. Serial dilutions of the compounds were added in triplicate starting at 25 μM. Cells were further incubated for an additional 48 h at 37 °C in an atmosphere containing 5% CO2. Zero-growth control wells were incubated with 5% Triton X-100 for 5 min prior to MTS addition. Following the addition of MTS to all wells, the plates were incubated for an additional 4 h under the same environmental conditions before taking absorbance measurements. Absorbance values were recorded at 490 nm using a Synergy Neo2 multimode reader (BioTek), and values were normalized based on Triton X-100-lysed and no treatment controls. Samples were run in triplicate in each assay, and the experiments were repeated three times.

Series [6] deals with P. falciparum line Dd2. As to the kind of experiment: Plasmodium falciparum growth inhibition assay (SYBR Green I), Dd2. Conditions: for EC50: Plasmodium falciparum, DD2, 72 h, read-out: EC50 Dd2 (M).
Procedure: (§2) Plasmodium falciparum growth inhibition assay: Antiplasmodial EC50 results were determined using a fluorescence-based SYBR Green I assay performed using asynchronous cultures [30, 35]. […] Plates were subsequently frozen at −80 °C to facilitate lysis. […] Relative fluorescence units (RFUs) were normalized based on chloroquine-treated and no treatment controls. Serial dilutions of compounds were prepared in RPMI with final assay conditions of ≤0.2% DMSO. Each assay was conducted in triplicate with three biological replicates.
Series [7] concerns P. falciparum 3D7. As to the kind of experiment: Plasmodium falciparum growth inhibition assay (SYBR Green I), 3D7. As to conditions: 3D7, 72 h, read-out: EC50 3D7(M).
Procedure: as §2
In series [8] the test system is HuF fibroblast cell line. As to conditions: sub-confluent; ref Rusman et al. 2020 [25]; cited from earlier work.

`C[C@@H]1CCC2CC(=O)C[C@@H](O)CC/C=C/C=C\CC[C@H](C)OC(=O)[C@@H]3O[B-]45O[C@@H](C(=O)O[C@@H](C)CC/C=C\C=C\CC[C@H](O)CC(=O)CC6CC[C@@H](C)[C@]3(O6)O4)[C@@]1(O2)O5` [tartrolon E, reference compound]: in series [1], the “effect on parasite invasion (positive control)” value is “completely inhibited parasite invasion”.

`C[C@@]12CCC[C@]3(C)C4=CC(=O)O[C@H](O)C4=C[C@@H](OC1=O)[C@@H]23` [compound 10, yukonin]: the EC50 in series [2] was found to be 1.09 µM. Also, in series [3], the “TC50 HCT-8 (confluent)” value was more than 30 µM and the “TC50 HCT-8 (sub-confluent)” value is recorded as 2.5 ± 0.3 µM. Also, in series [4], the “TC50 HFF (confluent)” value was more than 30 µM.

`C[C@]12CCC[C@](C)(C(=O)O)[C@@H]1C=C[C@]1(O)COC(=O)C[C@H]21` [compound 13, oidiolactone E]: in series [5], the TC50 HepG2 was more than 25 µM. Besides, the EC50 in series [6] and in series [7] was more than 5e-06 M in each case.

On to `C[C@]12C(=O)O[C@@H]3[C@H]4O[C@@]45C(=CC(=O)O[C@H]5O)[C@@](C)(CC[C@H]1O)[C@@H]32` [compound 4, oidiolactone G], for which the “parasite inhibition in pilot screen” value in series [2] is listed as “eliminates activity”. Further, in series [5], the TC50 HepG2 is more than 25 µM. Further, the “TC50 HuF (sub-confluent)” value in series [8] is more than 30 µM. Moreover, the EC50 in series [6] and in series [7] was more than 5e-06 M throughout.

Turning to `C=C1C(O)C[C@@H]2[C@](C)(CCC[C@]2(C)C(=O)O)[C@H]1CC(=O)O` (stereo partly drawn) [compound 14, LL-Z1271β], the TC50 HepG2 in series [5] is more than 25 µM. Further, in series [8], the “TC50 HuF (sub-confluent)” value is more than 30 µM. For the same compound, the EC50 in series [6] and in series [7] was more than 5e-06 M throughout.

For the compound `C[C@@]12CCC[C@]3(C)c4cc(=O)occ4[C@H](O)[C@@H](OC1=O)[C@@H]23` [compound 12, oidiolactone L], the “parasite inhibition in pilot screen” value in series [2] is “inactive”. Moreover, the TC50 HepG2 in series [5] was more than 25 µM. Further, in series [8], the “TC50 HuF (sub-confluent)” value is recorded as more than 30 µM. Further, the EC50 in series [6] and in series [7] was more than 5e-06 M throughout.

Consider `C[C@]12C(=O)O[C@@H]3C=C4C(=CC(=O)O[C@@H]4O)[C@@](C)(CC[C@H]1O)[C@@H]32` [compound 9, oidiolactone K], for which the TC50 HepG2 in series [5] was more than 25 µM. Besides, the “TC50 HuF (sub-confluent)” value in series [8] is listed as more than 30 µM. Also, the EC50 in series [6] and in series [7] was more than 5e-06 M each time.

In the case of `C[C@@]12CCC[C@]3(C)C4=CC(=O)OC[C@]45O[C@@H]5[C@@H](OC1=O)[C@@H]23` [compound 2, oidiolactone C], the EC50 in series [2] came to 1.8 µM. Further, in series [3], the “TC50 HCT-8 (confluent)” value is more than 30 µM and the “TC50 HCT-8 (sub-confluent)” value is reported as 1.35 ± 0.2 µM. Also, in series [4], the “TC50 HFF (confluent)” value was more than 30 µM. Moreover, the TC50 HepG2 in series [5] is 17.1 ± 0.821 µM. The “TC50 HuF (sub-confluent)” value in series [8] was more than 30 µM. In series [6], the “SI: selectivity index=EC50 HepG2/ EC50 compound” value came out at 7 and the EC50 is 2.49e-06 ± 1.98e-07 M. Moreover, the EC50 in series [7] came out at 2.78e-06 ± 3.97e-07 M.

With `COC(=O)/C=C1/[C@]2(C(OC)OC)O[C@@H]2[C@H]2OC(=O)[C@@]3(C)CCC[C@@]1(C)[C@@H]23` [compound 5, oidiolactone H], in series [2], the “parasite inhibition in pilot screen” value is “abolishes inhibitory activity”. In series [8], the “TC50 HuF (sub-confluent)” value is more than 30 µM.

On to `COC(=O)/C=C1/[C@]2(C=O)O[C@@H]2[C@H]2OC(=O)[C@@]3(C)CCC[C@@]1(C)[C@@H]23` [compound 6, oidiolactone I], for which the figures for the EC50 in series [2], in series [6] and in series [7] were 7.8 µM, more than 4.99e-06 M and 3.65e-06 ± 5.96e-07 M, respectively. In addition, in series [3], the “TC50 HCT-8 (confluent)” value was more than 30 µM. The “TC50 HCT-8 (sub-confluent)” value in series [3] worked out at 4.8 ± 0.7 µM. The “TC50 HFF (confluent)” value in series [4] is recorded as more than 30 µM. In series [5], the TC50 HepG2 was more than 25 µM. In series [8], the “TC50 HuF (sub-confluent)” value is on record as more than 30 µM.

On to `C[C@@]12CCC[C@]3(C)C4=CC(=O)O[C@@H](O)[C@]45O[C@@H]5[C@@H](OC1=O)[C@@H]23` [compound 3, oidiolactone D], for which the TC50 HepG2 in series [5] was more than 25 µM. Further, the “TC50 HuF (sub-confluent)” value in series [8] is on record as more than 30 µM. Moreover, the EC50 in series [6] and in series [7] was more than 5e-06 M throughout.

In the case of `C[C@]1(C(=O)O)CCC[C@]2(C)C3=CC(=O)OCC3=CC[C@@H]12` [compound 11, oidiodendronic acid], the EC50 in series [2] is 9.1 µM; in series [6], more than 5e-06 M; in series [7], more than 5e-06 M. Further, in series [3], the “TC50 HCT-8 (confluent)” value is on record as more than 30 µM. Moreover, the “TC50 HCT-8 (sub-confluent)” value in series [3] is listed as 19.7 ± 4.8 µM. The “TC50 HFF (confluent)” value in series [4] is listed as more than 30 µM. Moreover, the TC50 HepG2 in series [5] is more than 25 µM. Further, in series [8], the “TC50 HuF (sub-confluent)” value was more than 30 µM.

In the case of `CO[C@H]1OC(=O)C=C2C1=C[C@H]1OC(=O)[C@@]3(C)[C@H](O)CC[C@@]2(C)[C@@H]13` [compound 8, oidiolactone J], the EC50 was 7.8 µM in series [2], more than 5e-06 M in series [6] and more than 5e-06 M in series [7]. In series [3], the “TC50 HCT-8 (confluent)” value was more than 30 µM. The “TC50 HCT-8 (sub-confluent)” value in series [3] is more than 30 µM. Besides, in series [4], the “TC50 HFF (confluent)” value is reported as more than 30 µM. Also, the TC50 HepG2 in series [5] was more than 25 µM. The “TC50 HuF (sub-confluent)” value in series [8] is listed as more than 30 µM.

The values above are taken from paper PMC12654037, “Norditerpene Natural Products from Subterranean Fungi with Anti-Parasitic Activity” (Microorganisms, 2025).
